Values quoted from earlier work, collected in publication PMC6376154 (International Journal for Parasitology: Drugs and Drug …, 2019).
Where two headings read alike, the source gives them in different places.

Tested on: P. falciparum 3D7 asexual blood stage
Settings: cited from earlier work
[1] = MMV Malaria Box data sheet, ref MMV data sheets
[2] = MMV Malaria Box data sheet, ref MMV data sheets, read-out: EC50_nM
[3] = source GNF, ref ChEMBL_NTD, read-out: CHEMBL EC50
[4] = MMV Malaria Box data sheet (supplement mmc2.xls), ref MMV data sheet, read-out: EC50_nM
[5] = value(s) per source (GSK, GNF, StJude), separated by semicolon, ref ChEMBL-NTD, read-out: CHEMBL EC50
[6] = ChEMBL-NTD value per source (GNF, GSK, StJude), several values in a cell follow the order of the sources, read-out: CHEMBL EC50
[7] = MMV Malaria Box sheet, ref MMV data sheets
[8] = MMV Malaria Box sheet, ref MMV data sheets, read-out: EC50_nM
[9] = MMV Malaria Box data sheet (supplement mmc2.xls), ref MMV data sheet
[10] = source GSK, ref ChEMBL_NTD, read-out: CHEMBL EC50

## Cc1cc(C)c2c(c1)OCN(Cc1ccccc1Cl)C2 [MMV006558]
[1]
  percent_inh @ 5 uM: 98%
[2]
  EC50: 268 nM
[3]
  EC50: 192 nM

## Clc1ccc2[nH]c3c(NCCCN4CCOCC4)ncnc3c2c1 [MMV006587]
[4]
  EC50: 700 nM
[5]
  EC50: 109 nM

## CCOC(=O)C1=CN(C)C=C(C(=O)OCC)C1c1cc(Br)c(OCC)c(OC)c1 [MMV006656]
[6]
  EC50: 913 nM

## CN(C)CCNc1cc(-c2ccccc2)nc2ccccc12 [MMV006704]
[7]
  percent_inh @ 2 uM: 92%
[8]
  EC50: 4000 nM
[3]
  EC50: 692 nM

## Cc1cc(N2CCN(C3CCCC3)CC2)n2c(nc3ccccc32)c1C#N [MMV006706]
[4]
  EC50: 683 nM
[5]
  EC50: 743 nM

## Cc1cc(=O)oc2c1ccc1oc(C(=O)c3ccccc3)c(C)c12 [MMV006753]
[7]
  percent_inh @ 5 uM: 94%
[3]
  EC50: 441 nM

## CCOc1c(Br)cc(C2C(C(=O)OC)=CN(C)C=C2C(=O)OC)cc1OC [MMV006764]
[6]
  EC50: 292 nM

## COc1cc2cc(C(=O)Nc3ccccc3)c(N)nc2cc1OC [MMV006767]
[9]
  percent_inh @ 5 uM: 99%

## CC(C)CCNCC(O)Cn1c2ccccc2c2ccccc21 (centres unmarked) [MMV006787]
[7]
  percent_inh @ 5 uM: 97%
[8]
  EC50: 473 nM
[3]
  EC50: 201 nM

## CCCCc1c(C)nc2c(OC)cccc2c1O [MMV006820]
[7]
  percent_inh @ 2 uM: 92%
[8]
  EC50: 4000 nM
[3]
  EC50: 1690 nM

## COc1ccc(Nc2cc(C)nc(NCc3ccccc3)n2)cc1 [MMV006825]
[6]
  EC50: 151 nM

## c1ccc2cc3c(Nc4ccc(N5CCOCC5)cc4)ccnc3cc2c1 [MMV006861]
[1]
  percent_inh @ 5 uM: 97%
[2]
  EC50: 251 nM
[3]
  EC50: 672 nM

## CCOC(=O)c1cnc2ccc(Cl)cc2c1NCCCN(C)C [MMV006882]
[7]
  percent_inh @ 5 uM: 98%
[8]
  EC50: 1190 nM
[3]
  EC50: 826 nM

## C=CCc1c(C)nc2ccccc2c1O [MMV006913]
[9]
  percent_inh @ 5 uM: 85%
[4]
  EC50: 1290 nM
[5]
  EC50: 707 nM

## Cc1ccc(-c2cc3nc4c(c(O)n3n2)CCCC4)cc1 [MMV006937]
[1]
  percent_inh @ 5 uM: 73%
[2]
  EC50: 396 nM
[3]
  EC50: 1600 nM

## O=C(Nc1ccc(-c2nc3cc(NC(=O)c4ccc(Cl)cc4)ccc3[nH]2)cc1)c1ccc(Cl)cc1 [MMV006962]
1.25 uM, solubility issue at 5 uM
  % inh. At 1.25 uM: Solubility issue at 5 uM. % inh. At 1.25 uM is 48
[6]
  EC50: 993 nM

## CCOc1ccc2nc(C)cc(Nc3ccc(N(C)C)cc3)c2c1 [MMV007020]
[6]
  EC50: 344 nM

## Cc1ccc2c(C)nc(Nc3nc(C)cc(-c4ccccc4)n3)nc2c1 [MMV007041]
[6]
  EC50: 975 nM

## CCOc1ccc(CN2CCN(CC(O)COc3ccc(OCC(O)CN4CCN(Cc5ccc(OCC)cc5)CC4)cc3)CC2)cc1 (centres unmarked) [MMV007092]
[6]
  EC50: 1370 nM

## c1ccc(C2=Nc3ccccc3N=C(c3ccccc3)c3ccccc32)cc1 [MMV007113]
[6]
  EC50: 678 nM

## CCOC(=O)c1cnc2ccc(CC)cc2c1O [MMV007116]
[2]
  EC50: 351 nM
[3]
  EC50: 716 nM

## OC1=C2C(=Nc3ccccc3SC2c2ccc(Br)cc2)c2ccccc21 (centres unmarked) [MMV007127]
[7]
  percent_inh @ 5 uM: 97%
[8]
  EC50: 567 nM
[3]
  EC50: 337 nM

## Cc1ccc(N2C3c4ccccc4N(S(=O)(=O)c4ccc(C)cc4)C2c2ccccc2N3S(=O)(=O)c2ccc(C)cc2)cc1 [MMV007160]
[1]
  percent_inh @ 5 uM: 97%
[2]
  EC50: 24.8 nM
[3]
  EC50: 720 nM

## Cc1cc(Nc2ccc(OCc3ccccc3)cc2)nc2cc(O)ccc12 [MMV007181]
[6]
  EC50: 73.6 nM

## COc1ccccc1N1C(=N)SC(=Cc2ccc(OCc3ccccc3F)cc2)C1=O [MMV007199]
[7]
  percent_inh @ 5 uM: 95%
[8]
  EC50: 478 nM

## COc1ccc(OC)c(C2C3=C(CC(C)(C)CC3=O)N(c3ccc(Cl)c(Cl)c3)C3=C2C(=O)CC(C)(C)C3)c1 [MMV007208]
[7]
  percent_inh @ 5 uM: 90%
[8]
  EC50: 912 nM
[3]
  EC50: 430 nM

## Cc1cccc(N2C(=O)C3C(C2=O)C2(c4ccccc4)C(=O)C3(c3ccccc3)C(c3ccc4c(c3)OCO4)=C2c2ccc3c(c2)OCO3)c1 (centres unmarked) [MMV007228]
[6]
  EC50: 1070 nM

## Cc1ccc(F)cc1NC(=O)c1cc(Cl)ccc1Nc1ccccc1 [MMV007275]
[6]
  EC50: 191 nM

## CCOc1ccc(Nc2ccnc3cc(Cl)ccc23)cc1 [MMV007285]
[6]
  EC50: 956 nM

## CCc1ccc(Nc2cc(C)nc3nc(C)nn23)cc1 [MMV007374]
[9]
  percent_inh @ 2 uM: 81%
[4]
  EC50: 4000 nM
[5]
  EC50: 574 nM

## COc1ccc(-c2nc3cc(Cc4ccc5[nH]c(-c6ccc(OC)cc6)nc5c4)ccc3[nH]2)cc1 [MMV007384]
[1]
  percent_inh @ 5 uM: 98%
[2]
  EC50: 176 nM
[3]
  EC50: 234 nM

## Cc1ccccc1OCCSc1nc2ccc(NC(=O)c3cccs3)cc2s1 [MMV007396]
[6]
  EC50: 497 nM

## O=C(NCc1ccco1)C1CCN(S(=O)(=O)c2ccc(Br)cc2)CC1 [MMV007430]
[9]
  percent_inh @ 5 uM: 93%
[4]
  EC50: 939 nM
[5]
  EC50: 362 nM

## COc1cc2c3cc1Oc1c(OC)c(OC)cc4c1C(Cc1ccc(O)c(c1)Oc1ccc(cc1)CC3N(C)CC2)N(C)CC4 (centres unmarked) [MMV007474]
[6]
  EC50: 997 nM

## COc1ccc(CCNC(=O)c2cc(S(=O)(=O)N3CC(C)CC(C)C3)ccc2Sc2ccc(F)cc2)cc1OC (centres unmarked) [MMV007557]
[7]
  percent_inh @ 5 uM: 97%
[8]
  EC50: 632 nM
[3]
  EC50: 1050 nM

## Cc1ccc(Cn2c(N3CCC(C(=O)NCc4cccs4)CC3)nc3ccccc32)cc1 [MMV007564]
[1]
  percent_inh @ 5 uM: 73%
[2]
  EC50: 947 nM
[3]
  EC50: 529 nM
[10]
  EC50: 748 nM

## Cc1ccc(CSCc2ccc(C(=O)NC3CC3)o2)cc1 [MMV007571]
[9]
  percent_inh @ 5 uM: 97%
[4]
  EC50: 635 nM
[5]
  EC50: 418 nM

## O=C(Nc1ccc(C23CC4CC(CC(c5ccccc5)(C4)C2)C3)cc1)c1cccs1 [MMV007574]
[7]
  percent_inh @ 5 uM: 96%
[8]
  EC50: 826 nM
[3]
  EC50: 645 nM

## Cc1ccccc1OCCSc1nc2ccc(NC(=O)c3ccccc3)cc2s1 [MMV007577]
[7]
  percent_inh @ 5 uM: 93%
[8]
  EC50: 1120 nM
[3]
  EC50: 9760 nM

## COc1ccc(C(=O)C(CCC(CNC(C)(C)C)C(=O)c2ccc(OC)cc2)CNC(C)(C)C)cc1 (centres unmarked) [MMV007591]
[6]
  EC50: 1120 nM

## CC(=O)NCCc1nc2ccccc2n1Cc1ccc(C(C)C)cc1 [MMV007617]
[9]
  percent_inh @ 5 uM: 97%
[4]
  EC50: 1790 nM
[5]
  EC50: 764 nM

## Cc1ccc(C)c(-c2csc(Nc3ccc(C)c(C)c3)n2)c1 [MMV007654]
[6]
  EC50: 493 nM

## CCCCCCOC(=O)C1=C(C)NC(=O)NC1c1ccccc1F (centres unmarked) [MMV007686]
[1]
  percent_inh @ 5 uM: 95%
[2]
  EC50: 106 nM
[3]
  EC50: 6760 nM

## COc1ccc(C(C)=O)cc1N1C(=O)C2C(C1=O)C1(c3ccccc3)C(=O)C2(c2ccccc2)C(c2ccc(C)cc2)=C1c1ccc(C)cc1 (centres unmarked) [MMV007695]
[1]
  percent_inh @ 5 uM: 96%
[2]
  EC50: 179 nM
[3]
  EC50: 2460 nM

## CCCCc1c(CCC)c(=N)c2ccccc2n1C [MMV007764]
[6]
  EC50: 311 nM

## CCOc1ccccc1NC(=O)CN1CCN(C(=O)c2ccco2)CC1 [MMV007791]
[7]
  percent_inh @ 5 uM: 83%
[3]
  EC50: 5460 nM

## COc1nc(Nc2ccc(C(C)C)cc2)nc(OC)n1 [MMV007808]
[9]
  percent_inh @ 5 uM: 88%
[4]
  EC50: 1140 nM
[5]
  EC50: 677 nM

## COc1ccc2c(c1)OC(O)(C(F)(F)C(F)(F)F)CC2=O (centres unmarked) [MMV007839]
[2]
  EC50: 283 nM
[3]
  EC50: 442 nM

## COc1ccc2nc(C)cc(Nc3ccc(Cl)cc3)c2c1 [MMV007875]
[7]
  percent_inh @ 2 uM: 95%
[8]
  EC50: 2000 nM
[3]
  EC50: 1230 nM
[10]
  EC50: 946 nM

## CCCCN(CCCC)S(=O)(=O)c1ccc(NC(=O)c2ccco2)cc1 [MMV007881]
[7]
  percent_inh @ 5 uM: 78%
[3]
  EC50: 1420 nM

## CCCCOc1ccc(C(=O)Nc2cc(C)on2)cc1 [MMV007906]
[9]
  percent_inh @ 5 uM: 73%
[5]
  EC50: 3160 nM

## Cc1ccc(Nc2nc(-c3ccccn3)cs2)cc1 [MMV007907]
[1]
  percent_inh @ 5 uM: 79%
[2]
  EC50: 350 nM
[3]
  EC50: 407 nM

## O=c1nc(C=Cc2ccc(Cl)cc2)oc2ccccc12 [MMV007977]
[9]
  percent_inh @ 5 uM: 76%
[4]
  EC50: 995 nM

## CCOc1ccc(CCNC(=O)c2cccs2)cc1OCC [MMV007978]
[7]
  percent_inh @ 5 uM: 95%
[3]
  EC50: 890 nM

## CN1CCN(c2c3c(c(C#N)c4nc5ccccc5n24)CCC3)CC1 [MMV008127]
[9]
  percent_inh @ 2 uM: 42%
[4]
  EC50: 4000 nM
[5]
  EC50: 1180 nM

## O=C(O)C1Cc2c([nH]c3ccccc23)C(c2ccc(Cl)cc2Cl)N1 (centres unmarked) [MMV008138]
[2]
  EC50: 350 nM
[3]
  EC50: 1020 nM
[10]
  EC50: 954 nM

## Cc1c(C)n(Cc2ccc(F)cc2)c2ccc(C(=O)NCc3ccco3)cc12 [MMV008149]
[9]
  percent_inh @ 5 uM: 52%
[5]
  EC50: 78.2 nM

## CN1C=C(c2ccc3ccccc3n2)C(c2c[nH]c3ccccc23)c2ccccc21 (centres unmarked) [MMV008160]
[6]
  EC50: 1140 nM

## COc1cc(OC)cc(N2C(=O)N(Cc3ccc(C(C)(C)C)cc3)c3ccccc3S2(=O)=O)c1 [MMV008173]
[7]
  percent_inh @ 5 uM: 97%
[8]
  EC50: 1430 nM
[3]
  EC50: 3750 nM

## Oc1c2c(nc3cc(-c4ccccc4)nn13)CCCC2 [MMV008270]
[9]
  percent_inh @ 5 uM: 77%
[5]
  EC50: 1930 nM

## CCOC(=O)c1cnc2c(C)cc(C)cc2c1Nc1ccc(OC)c(OC)c1 [MMV008294]
[1]
  percent_inh @ 5 uM: 96%
[2]
  EC50: 232 nM
[3]
  EC50: 1780 nM

## CCCc1c(CC)c(=N)c2ccccc2n1C [MMV008416]
[1]
  percent_inh @ 5 uM: 69%
[2]
  EC50: 242 nM
[3]
  EC50: 762 nM

## COc1ccc(C2C(C(=O)Nc3cccc(OC)c3)c3ccccc3C(=O)N2C2CCCCC2)cc1 (centres unmarked) [MMV008455]
[7]
  percent_inh @ 5 uM: 97%
[8]
  EC50: 1180 nM
[3]
  EC50: 1110 nM

## CCN1CCN(c2c(C(=O)c3ccccc3)cnc3cc(OC)c(OC)cc23)CC1 [MMV008474]
[7]
  percent_inh @ 5 uM: 59%
[3]
  EC50: 3020 nM
